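The compound was tested at five concentrations on cells cultured in 96-well plates, with a 48-hour exposure period. The concentration for 50% growth inhibition is given as GI50.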 Calls of active or inactive are those of the source. Cut-off read from the data, not from the text of the source: active = GI50 up to about 1.1 µM and inactive = higher.
Assays:
Assay in all cases: growth of human tumour cells (NCI), 48 h
[1] = system: K562
[2] = system: OVCAR-4
[3] = system: HT-29
[4] = system: EKVX
[5] = system: SW-620
[6] = system: M14
[7] = system: UO-31
[8] = system: RXF 393
[9] = system: NCI-H226
[10] = system: SF-268
[11] = system: NCI-H522
[12] = system: HOP-62
[13] = system: U-251
[14] = system: NCI-H460
[15] = system: CAKI-1
[16] = system: HOP-92

CC(=O)NC1=C(NCCN(C)C)C(=O)c2ccccc2C1=O
GI50 [1]: 12.4 µM (inactive) | GI50 [2]: 8.93 µM (inactive) | GI50 [3]: 13.8 µM (inactive) | GI50 [4]: 32.9 µM (inactive) | GI50 [5]: 16 µM (inactive) | GI50 [6]: 18.4 µM (inactive) | GI50 [7]: > 50 µM (inactive) | GI50 [8]: 25.4 µM (inactive) | GI50 [9]: > 50 µM (inactive) | GI50 [10]: 21.5 µM (inactive) | GI50 [11]: 10.3 µM (inactive) | GI50 [12]: 14.5 µM (inactive) | GI50 [13]: 10.3 µM (inactive) | GI50 [14]: 12.8 µM (inactive)

Cc1nc2c(o1)/C(=N\c1ccccc1)c1ccccc1C2=O
GI50 [1]: 5.7 µM (inactive) | GI50 [3]: 18.7 µM (inactive) | GI50 [15]: 18.4 µM (inactive) | GI50 [4]: 14.2 µM (inactive) | GI50 [5]: 10.7 µM (inactive) | GI50 [6]: 9.64 µM (inactive) | GI50 [7]: 7.89 µM (inactive) | GI50 [8]: 20.2 µM (inactive) | GI50 [10]: 7.83 µM (inactive) | GI50 [11]: 4.57 µM (inactive) | GI50 [12]: 13.5 µM (inactive) | GI50 [13]: 3.61 µM (inactive) | GI50 [14]: 12.6 µM (inactive) | GI50 [16]: 12.3 µM (inactive)

O=C(c1ccccc1)N1CCN2CCN=C(c3ccccc3)C21c1ccccc1 (stereo unspecified)
GI50 [1]: 29.1 µM (inactive) | GI50 [2]: 29.4 µM (inactive) | GI50 [3]: > 100 µM (inactive) | GI50 [4]: 70.8 µM (inactive) | GI50 [5]: > 100 µM (inactive) | GI50 [6]: 61.2 µM (inactive) | GI50 [7]: 22.8 µM (inactive) | GI50 [8]: 45.5 µM (inactive) | GI50 [9]: 19.5 µM (inactive) | GI50 [12]: > 100 µM (inactive) | GI50 [13]: > 100 µM (inactive) | GI50 [14]: 94.8 µM (inactive) | GI50 [16]: 17.1 µM (inactive)

Cc1cc(N(CCC#N)CCC#N)ccc1/N=N/c1ccc(Br)cc1
GI50 [1]: 23.8 µM (inactive) | GI50 [2]: > 100 µM (inactive) | GI50 [3]: > 100 µM (inactive) | GI50 [15]: 16.4 µM (inactive) | GI50 [4]: 26.8 µM (inactive) | GI50 [5]: > 48.6 µM (inactive) | GI50 [6]: 9.02 µM (inactive) | GI50 [7]: 27.7 µM (inactive) | GI50 [8]: 8.13 µM (inactive) | GI50 [9]: 25.1 µM (inactive) | GI50 [10]: 22.3 µM (inactive) | GI50 [11]: 16.6 µM (inactive) | GI50 [12]: 6.41 µM (inactive) | GI50 [13]: 19.5 µM (inactive) | GI50 [14]: > 100 µM (inactive)

O=[N+]([O-])c1ccc(Sc2c3ccccc3nc3ccccc23)cc1
GI50 [1]: > 100 µM (inactive) | GI50 [2]: > 100 µM (inactive) | GI50 [3]: > 100 µM (inactive) | GI50 [15]: > 100 µM (inactive) | GI50 [4]: > 100 µM (inactive) | GI50 [5]: > 100 µM (inactive) | GI50 [6]: > 100 µM (inactive) | GI50 [7]: > 100 µM (inactive) | GI50 [8]: > 100 µM (inactive) | GI50 [9]: > 100 µM (inactive) | GI50 [10]: > 100 µM (inactive) | GI50 [11]: 74.1 µM (inactive) | GI50 [12]: > 100 µM (inactive) | GI50 [13]: > 100 µM (inactive) | GI50 [14]: > 100 µM (inactive)

O=C1c2c(O)cccc2C(C(=O)CCCCCC(=O)C2c3cccc(O)c3C(=O)c3c(O)cccc32)c2cccc(O)c21
GI50 [1]: 0.966 µM (active) | GI50 [2]: 1.5 µM (inactive) | GI50 [3]: 4.49 µM (inactive) | GI50 [15]: 4.5 µM (inactive) | GI50 [4]: 0.957 µM (active) | GI50 [5]: 1.09 µM (active) | GI50 [6]: 2.45 µM (inactive) | GI50 [7]: 1.15 µM (inactive) | GI50 [9]: 3.64 µM (inactive) | GI50 [10]: 1.04 µM (active) | GI50 [11]: 0.638 µM (active) | GI50 [12]: 2.88 µM (inactive) | GI50 [13]: 0.766 µM (active) | GI50 [14]: 0.586 µM (active) | GI50 [16]: 7.98 µM (inactive)

Cc1c2n(c(=O)[nH]c1=O)C1OC(CO)C(O2)C1N=[N+]=[N-] (stereo unspecified)
GI50 [1]: > 100 µM (inactive) | GI50 [2]: > 100 µM (inactive) | GI50 [3]: > 100 µM (inactive) | GI50 [15]: > 100 µM (inactive) | GI50 [4]: > 100 µM (inactive) | GI50 [5]: > 100 µM (inactive) | GI50 [7]: > 100 µM (inactive) | GI50 [9]: > 100 µM (inactive) | GI50 [10]: > 100 µM (inactive) | GI50 [11]: > 100 µM (inactive) | GI50 [12]: > 100 µM (inactive) | GI50 [13]: > 100 µM (inactive) | GI50 [14]: > 100 µM (inactive) | GI50 [16]: > 100 µM (inactive)

CCc1cc(C(=O)OC)cn1C(=N)c1ccc(Cl)cc1
GI50 [1]: > 100 µM (inactive) | GI50 [2]: > 100 µM (inactive) | GI50 [3]: > 100 µM (inactive) | GI50 [15]: > 100 µM (inactive) | GI50 [4]: > 100 µM (inactive) | GI50 [5]: > 100 µM (inactive) | GI50 [6]: > 100 µM (inactive) | GI50 [7]: > 100 µM (inactive) | GI50 [9]: > 100 µM (inactive) | GI50 [10]: > 100 µM (inactive) | GI50 [12]: > 100 µM (inactive) | GI50 [13]: > 100 µM (inactive) | GI50 [14]: > 100 µM (inactive) | GI50 [16]: > 100 µM (inactive)

CCCCCCCCOCC(COC(=O)CCCCCCC)OC(=O)CCCCCCC (stereo unspecified)
GI50 [1]: > 100 µM (inactive) | GI50 [2]: > 100 µM (inactive) | GI50 [3]: > 100 µM (inactive) | GI50 [15]: > 100 µM (inactive) | GI50 [5]: > 100 µM (inactive) | GI50 [6]: > 100 µM (inactive) | GI50 [7]: > 100 µM (inactive) | GI50 [9]: > 100 µM (inactive) | GI50 [10]: > 100 µM (inactive) | GI50 [12]: > 100 µM (inactive) | GI50 [13]: > 100 µM (inactive) | GI50 [14]: > 100 µM (inactive) | GI50 [16]: 51.5 µM (inactive)

Cc1cnc2c(C)ccc([N+](=O)[O-])c2c1NCCCN(C)C
GI50 [1]: > 100 µM (inactive) | GI50 [2]: > 100 µM (inactive) | GI50 [3]: > 100 µM (inactive) | GI50 [15]: > 100 µM (inactive) | GI50 [4]: > 100 µM (inactive) | GI50 [5]: > 100 µM (inactive) | GI50 [6]: > 100 µM (inactive) | GI50 [7]: > 100 µM (inactive) | GI50 [9]: > 100 µM (inactive) | GI50 [10]: > 100 µM (inactive) | GI50 [11]: > 100 µM (inactive) | GI50 [12]: > 100 µM (inactive) | GI50 [13]: > 100 µM (inactive) | GI50 [14]: > 100 µM (inactive)

CC1=CCC(O)C=CC(C)C(O)C(C)C=C(C)C(=O)c2c(O)c(C)cc3c2C(=O)C(N)=C(NC(=O)/C=C\C=C/C=CC(C)C(O)CC1=O)C3=O (stereo unspecified)
GI50 [1]: > 100 µM (inactive) | GI50 [2]: > 100 µM (inactive) | GI50 [3]: > 100 µM (inactive) | GI50 [15]: > 100 µM (inactive) | GI50 [4]: > 100 µM (inactive) | GI50 [5]: > 100 µM (inactive) | GI50 [6]: > 100 µM (inactive) | GI50 [7]: 63 µM (inactive) | GI50 [9]: > 100 µM (inactive) | GI50 [10]: > 100 µM (inactive) | GI50 [11]: 19.5 µM (inactive) | GI50 [12]: > 100 µM (inactive) | GI50 [13]: > 100 µM (inactive) | GI50 [16]: > 100 µM (inactive)

COC1=C2C[C@H](O)C(C)C[C@@]2(OC)OC1=O (stereo partly specified)
GI50 [1]: > 100 µM (inactive) | GI50 [2]: > 100 µM (inactive) | GI50 [3]: > 100 µM (inactive) | GI50 [15]: > 100 µM (inactive) | GI50 [5]: > 100 µM (inactive) | GI50 [6]: > 100 µM (inactive) | GI50 [7]: > 100 µM (inactive) | GI50 [8]: > 100 µM (inactive) | GI50 [10]: > 100 µM (inactive) | GI50 [11]: > 100 µM (inactive) | GI50 [12]: > 100 µM (inactive) | GI50 [13]: > 100 µM (inactive) | GI50 [14]: > 100 µM (inactive) | GI50 [16]: > 100 µM (inactive)

O=[N+]([O-])c1cccc(C2=NOC(C3CCCCC3)C2)c1 (stereo unspecified)
GI50 [1]: > 100 µM (inactive) | GI50 [2]: > 100 µM (inactive) | GI50 [3]: 82 µM (inactive) | GI50 [5]: > 100 µM (inactive) | GI50 [6]: > 100 µM (inactive) | GI50 [7]: > 100 µM (inactive) | GI50 [9]: > 100 µM (inactive) | GI50 [10]: > 100 µM (inactive) | GI50 [11]: > 100 µM (inactive) | GI50 [12]: > 100 µM (inactive) | GI50 [13]: > 100 µM (inactive) | GI50 [14]: > 100 µM (inactive) | GI50 [16]: > 100 µM (inactive)

COC(=O)c1c(C(=O)OC)c2cc(C(=O)c3ccccc3)ccn2c1Cl
GI50 [1]: 29 µM (inactive) | GI50 [2]: 31.2 µM (inactive) | GI50 [3]: 47.1 µM (inactive) | GI50 [4]: 31 µM (inactive) | GI50 [5]: 71 µM (inactive) | GI50 [6]: 34 µM (inactive) | GI50 [7]: 28.2 µM (inactive) | GI50 [8]: 23.7 µM (inactive) | GI50 [9]: 22.3 µM (inactive) | GI50 [10]: 43.2 µM (inactive) | GI50 [11]: 19.5 µM (inactive) | GI50 [12]: 37.2 µM (inactive) | GI50 [13]: 44.2 µM (inactive) | GI50 [14]: 50 µM (inactive)
